Measurements taken from ChEMBL document CHEMBL1138126, “Tyrosine kinase inhibitors. 19. 6-Alkynamides of 4-anilinoquinazolines and 4-anilinopyrido[3,4-d]pyrimidines as irreversible inhibitors of the erbB family of tyrosine kinase receptors” (J Med Chem, 2006).
Values belong to the compound of their own block, whether it stands above or below them. Activity calls are given as the source filed them. The rule behind the calls is not given here.

Key:
[1] = target: T1, Epidermal growth factor receptor (Homo sapiens, UniProt P00533); assay: Inhibition of erbB1 fusion protein expressed in baculovirus by ELISA
[2] = target: T1, Epidermal growth factor receptor; assay: Inhibition of EGF stimulated human erbB1 autophosphorylation in NIH3T3 cells
[3] = target: T2, Receptor tyrosine-protein kinase erbB-2 (Homo sapiens, UniProt P04626)
Description: Inhibition of erbB2 fusion protein expressed in baculovirus by ELISA

[4] = target: Receptor tyrosine-protein kinase erbB-4 (Homo sapiens, UniProt Q15303)
Description: Inhibition of erbB4 fusion protein expressed in baculovirus by ELISA

[5] = target: T2, Receptor tyrosine-protein kinase erbB-2; remark: listed apart in the source
Description: Inhibition of HER stimulated human erbB autophosphorylation in MDA-MB-453 cells

[6] = Volume of distribution in rat at 5 mg/kg, iv; type: ADME, organism-based; design: dose 5 mg/kg, route intravenous; conditions: in vivo, read-out: Vdss
[7] = Volume of distribution in dog at 5 mg/kg, iv; type: ADME, organism-based, Canis lupus familiaris; design: dose 5 mg/kg, route intravenous; conditions: in vivo, read-out: Vdss
[8] = Volume of distribution in monkey at 5 mg/kg, iv; type: ADME, organism-based, Macaca mulatta; design: dose 5 mg/kg, route intravenous; conditions: rhesus monkey, in vivo, read-out: Vdss
[9] = AUC(0-tz) in rat at 5 mg/kg, iv; type: ADME, organism-based; design: dose 5 mg/kg, route intravenous; conditions: plasma
[10] = AUC(0-tz) in dog at 5 mg/kg, iv; type: ADME, organism-based, Canis lupus familiaris; design: dose 5 mg/kg, route intravenous; conditions: plasma
[11] = test system: Mus musculus; assay: Antitumor activity in NCr nu/nu mice implanted with SKOV3 xenografts at 40 mg/kg, po; type: functional, organism-based; design: dose 40 mg/kg
[12] = test system: Mus musculus; assay: Antitumor activity in SCID mice implanted with SF 767 xenografts at 40 mg/kg, po; type: functional, organism-based; design: dose 40 mg/kg; conditions: CB17
[13] = test system: Mus musculus; assay: Antitumor activity in SCID mice implanted with BXPC3 xenografts at 40 mg/kg, po; type: functional, organism-based; design: dose 40 mg/kg; conditions: CB17
[14] = AUC(0-tz) in monkey at 5 mg/kg, iv; type: ADME, organism-based, Macaca mulatta; design: dose 5 mg/kg, route intravenous; conditions: rhesus monkey, plasma
[15] = AUC(0-tz) in rat at 15 mg/kg, po; type: ADME, organism-based; design: dose 15 mg/kg, route oral; conditions: plasma
[16] = AUC(0-tz) in dog at 15 mg/kg, po; type: ADME, organism-based, Canis lupus familiaris; design: dose 15 mg/kg, route oral; conditions: plasma
[17] = AUC(0-tz) in monkey at 30 mg/kg, po; type: ADME, organism-based, Macaca mulatta; design: dose 30 mg/kg, route oral; conditions: rhesus monkey, plasma
[18] = Oral bioavailability in rat at 15 mg/kg; type: ADME, organism-based; conditions: in vivo
[19] = Oral bioavailability in dog at 15 mg/kg; type: ADME, organism-based, Canis lupus familiaris; conditions: in vivo
[20] = Oral bioavailability in monkey at 30 mg/kg; type: ADME, organism-based, Macaca mulatta; conditions: rhesus monkey, in vivo
[21] = Cmax in rat at 15 mg/kg, po; type: ADME, organism-based; design: dose 15 mg/kg, route oral; conditions: in vivo
[22] = Cmax in dog at 15 mg/kg, po; type: ADME, organism-based, Canis lupus familiaris; design: dose 15 mg/kg, route oral; conditions: in vivo
[23] = Cmax in monkey at 30 mg/kg, po; type: ADME, organism-based, Macaca mulatta; design: dose 30 mg/kg, route oral; conditions: rhesus monkey, in vivo
[24] = Tmax in rat at 15 mg/kg, po; type: ADME, organism-based; design: dose 15 mg/kg, route oral; conditions: in vivo
[25] = Tmax in dog at 15 mg/kg, po; type: ADME, organism-based, Canis lupus familiaris; design: dose 15 mg/kg, route oral; conditions: in vivo
[26] = Tmax in monkey at 30 mg/kg, po; type: ADME, organism-based, Macaca mulatta; design: dose 30 mg/kg, route oral; conditions: rhesus monkey, in vivo
[27] = Half life in rat at 5 mg/kg, iv; type: ADME, organism-based; design: dose 5 mg/kg, route intravenous; conditions: in vivo
[28] = Half life in dog at 5 mg/kg, iv; type: ADME, organism-based, Canis lupus familiaris; design: dose 5 mg/kg, route intravenous; conditions: in vivo
[29] = Half life in monkey at 5 mg/kg, iv; type: ADME, organism-based, Macaca mulatta; design: dose 5 mg/kg, route intravenous; conditions: rhesus monkey, in vivo
[30] = Plasma clearance in rat at 5 mg/kg, iv; type: ADME, organism-based; design: dose 5 mg/kg, route intravenous
[31] = Plasma clearance in dog at 5 mg/kg, iv; type: ADME, organism-based, Canis lupus familiaris; design: dose 5 mg/kg, route intravenous
[32] = Plasma clearance in monkey at 5 mg/kg, iv; type: ADME, organism-based, Macaca mulatta; design: dose 5 mg/kg, route intravenous; conditions: rhesus monkey
[33] = target: Platelet-derived growth factor receptor (Homo sapiens, UniProt P09619+P16234); assay: Inhibition of PDGF receptor; type: protein-complex assay
[34] = target: Fibroblast growth factor receptor (Homo sapiens, UniProt P22607+P11362+P22455+P21802); assay: Inhibition of FGFR; type: protein assay
[35] = target: Insulin receptor (Homo sapiens, UniProt P06213); assay: Inhibition of insulin receptor
[36] = test system: Mus musculus; assay: Antitumor activity in NCr nu/nu mice implanted with A431 xenografts at 10 mg/kg, po; type: functional, organism-based; design: dose 10 mg/kg
[37] = test system: Mus musculus; assay: Antitumor activity in NCr nu/nu mice implanted with H125 NSC xenografts at 40 mg/kg, po; type: functional, organism-based; design: dose 40 mg/kg
[38] = target: T2, Receptor tyrosine-protein kinase erbB-2; remark: listed apart in the source
Description: Inhibition of ligand stimulated erbB2 autophosphorylation in T24 NIH cells

Sequence of Receptor tyrosine-protein kinase erbB-4 (Q15303 whole entry): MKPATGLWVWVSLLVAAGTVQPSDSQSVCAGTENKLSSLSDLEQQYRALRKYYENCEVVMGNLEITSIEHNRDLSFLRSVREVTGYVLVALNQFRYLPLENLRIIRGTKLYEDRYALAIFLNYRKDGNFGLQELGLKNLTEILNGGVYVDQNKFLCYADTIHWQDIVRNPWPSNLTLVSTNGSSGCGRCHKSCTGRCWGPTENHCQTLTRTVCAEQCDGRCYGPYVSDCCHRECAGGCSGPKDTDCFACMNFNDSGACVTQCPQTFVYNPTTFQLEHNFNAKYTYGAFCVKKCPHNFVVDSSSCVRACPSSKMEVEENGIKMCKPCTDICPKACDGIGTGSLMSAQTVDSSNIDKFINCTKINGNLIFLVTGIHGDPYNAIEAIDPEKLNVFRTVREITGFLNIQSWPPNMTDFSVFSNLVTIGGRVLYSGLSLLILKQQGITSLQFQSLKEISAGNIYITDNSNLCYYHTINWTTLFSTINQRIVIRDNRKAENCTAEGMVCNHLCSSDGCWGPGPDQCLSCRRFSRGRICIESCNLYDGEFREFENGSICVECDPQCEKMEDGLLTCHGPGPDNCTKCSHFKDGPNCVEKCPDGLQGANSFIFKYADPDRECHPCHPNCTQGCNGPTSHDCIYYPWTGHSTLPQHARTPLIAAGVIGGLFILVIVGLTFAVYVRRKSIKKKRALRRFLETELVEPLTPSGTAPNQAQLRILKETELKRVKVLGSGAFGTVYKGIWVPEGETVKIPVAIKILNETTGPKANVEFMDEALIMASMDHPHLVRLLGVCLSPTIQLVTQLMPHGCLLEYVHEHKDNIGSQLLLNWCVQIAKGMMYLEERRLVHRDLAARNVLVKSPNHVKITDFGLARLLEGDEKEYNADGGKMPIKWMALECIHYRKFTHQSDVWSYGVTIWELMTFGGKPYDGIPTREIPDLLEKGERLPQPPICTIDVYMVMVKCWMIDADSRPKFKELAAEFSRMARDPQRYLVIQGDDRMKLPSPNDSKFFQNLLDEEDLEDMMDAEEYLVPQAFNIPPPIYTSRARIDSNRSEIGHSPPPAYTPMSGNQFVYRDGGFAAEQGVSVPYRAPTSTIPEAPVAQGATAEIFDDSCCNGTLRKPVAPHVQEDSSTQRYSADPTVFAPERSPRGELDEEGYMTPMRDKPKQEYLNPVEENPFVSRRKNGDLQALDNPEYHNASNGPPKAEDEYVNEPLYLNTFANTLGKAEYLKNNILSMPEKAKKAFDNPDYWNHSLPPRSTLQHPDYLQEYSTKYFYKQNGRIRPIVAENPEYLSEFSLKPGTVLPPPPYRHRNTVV
T1 sequence (P00533 whole entry, the tested form may be a part): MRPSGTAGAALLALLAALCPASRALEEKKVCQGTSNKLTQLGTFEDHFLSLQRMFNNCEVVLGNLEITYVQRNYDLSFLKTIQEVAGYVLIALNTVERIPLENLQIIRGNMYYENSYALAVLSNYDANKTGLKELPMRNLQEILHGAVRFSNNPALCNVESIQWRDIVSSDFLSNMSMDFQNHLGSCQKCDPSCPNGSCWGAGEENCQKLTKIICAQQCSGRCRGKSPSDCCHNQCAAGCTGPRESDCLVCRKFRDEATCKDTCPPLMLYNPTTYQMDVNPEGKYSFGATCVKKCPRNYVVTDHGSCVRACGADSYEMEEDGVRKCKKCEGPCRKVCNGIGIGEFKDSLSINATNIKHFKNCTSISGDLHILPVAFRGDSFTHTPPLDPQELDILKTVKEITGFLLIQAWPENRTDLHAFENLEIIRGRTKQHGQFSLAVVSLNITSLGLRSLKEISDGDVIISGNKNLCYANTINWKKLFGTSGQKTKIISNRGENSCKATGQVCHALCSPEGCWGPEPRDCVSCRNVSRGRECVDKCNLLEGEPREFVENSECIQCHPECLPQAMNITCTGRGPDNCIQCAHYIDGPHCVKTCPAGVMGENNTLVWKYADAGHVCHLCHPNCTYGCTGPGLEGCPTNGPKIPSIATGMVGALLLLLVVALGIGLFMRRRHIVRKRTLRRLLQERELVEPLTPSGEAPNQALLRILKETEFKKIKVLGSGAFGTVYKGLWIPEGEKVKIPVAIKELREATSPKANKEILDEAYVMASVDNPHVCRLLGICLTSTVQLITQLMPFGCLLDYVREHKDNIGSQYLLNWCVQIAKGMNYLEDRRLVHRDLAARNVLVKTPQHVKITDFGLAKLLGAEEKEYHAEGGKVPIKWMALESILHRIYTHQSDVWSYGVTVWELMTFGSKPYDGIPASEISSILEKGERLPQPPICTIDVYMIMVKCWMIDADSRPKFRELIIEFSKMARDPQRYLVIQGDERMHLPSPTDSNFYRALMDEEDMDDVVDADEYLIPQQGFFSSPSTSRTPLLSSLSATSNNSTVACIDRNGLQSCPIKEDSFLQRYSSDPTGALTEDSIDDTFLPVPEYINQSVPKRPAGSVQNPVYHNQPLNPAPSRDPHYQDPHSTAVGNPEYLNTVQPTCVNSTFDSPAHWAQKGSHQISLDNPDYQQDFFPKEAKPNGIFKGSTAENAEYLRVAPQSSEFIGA
T2 sequence (P04626 whole entry): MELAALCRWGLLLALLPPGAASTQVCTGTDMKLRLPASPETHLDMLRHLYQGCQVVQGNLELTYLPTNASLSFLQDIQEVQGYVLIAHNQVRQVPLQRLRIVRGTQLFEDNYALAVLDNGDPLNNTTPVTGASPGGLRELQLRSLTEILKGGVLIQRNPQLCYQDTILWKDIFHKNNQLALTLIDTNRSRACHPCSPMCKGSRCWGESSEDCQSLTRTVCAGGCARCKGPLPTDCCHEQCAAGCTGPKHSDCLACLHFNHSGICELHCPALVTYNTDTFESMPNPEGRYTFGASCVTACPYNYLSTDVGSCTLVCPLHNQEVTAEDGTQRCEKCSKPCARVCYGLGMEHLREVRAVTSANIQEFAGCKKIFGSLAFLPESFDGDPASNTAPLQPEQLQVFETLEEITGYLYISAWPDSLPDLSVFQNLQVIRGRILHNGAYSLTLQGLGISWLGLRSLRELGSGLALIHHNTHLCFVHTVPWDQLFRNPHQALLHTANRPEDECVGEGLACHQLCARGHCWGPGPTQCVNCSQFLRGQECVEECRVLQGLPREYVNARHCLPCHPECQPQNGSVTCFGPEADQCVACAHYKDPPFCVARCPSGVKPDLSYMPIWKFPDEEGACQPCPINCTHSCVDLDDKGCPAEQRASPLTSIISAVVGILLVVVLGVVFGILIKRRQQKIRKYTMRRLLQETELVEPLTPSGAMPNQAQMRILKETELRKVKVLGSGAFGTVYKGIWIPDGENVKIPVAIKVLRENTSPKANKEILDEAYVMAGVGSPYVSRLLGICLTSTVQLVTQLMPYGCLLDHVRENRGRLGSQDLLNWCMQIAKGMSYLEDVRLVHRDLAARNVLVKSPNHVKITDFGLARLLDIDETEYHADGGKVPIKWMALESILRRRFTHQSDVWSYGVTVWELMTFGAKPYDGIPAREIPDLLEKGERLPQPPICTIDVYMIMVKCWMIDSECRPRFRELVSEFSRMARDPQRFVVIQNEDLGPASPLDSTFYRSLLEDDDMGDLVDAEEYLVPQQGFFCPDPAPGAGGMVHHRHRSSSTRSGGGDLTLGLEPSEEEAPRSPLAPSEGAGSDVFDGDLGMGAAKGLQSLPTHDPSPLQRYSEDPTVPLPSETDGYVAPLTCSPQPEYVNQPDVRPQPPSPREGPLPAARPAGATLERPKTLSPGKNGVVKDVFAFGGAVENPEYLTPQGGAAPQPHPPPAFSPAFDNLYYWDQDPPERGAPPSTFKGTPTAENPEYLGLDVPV
Sequence of Insulin receptor (P06213 28-758 limits assumed): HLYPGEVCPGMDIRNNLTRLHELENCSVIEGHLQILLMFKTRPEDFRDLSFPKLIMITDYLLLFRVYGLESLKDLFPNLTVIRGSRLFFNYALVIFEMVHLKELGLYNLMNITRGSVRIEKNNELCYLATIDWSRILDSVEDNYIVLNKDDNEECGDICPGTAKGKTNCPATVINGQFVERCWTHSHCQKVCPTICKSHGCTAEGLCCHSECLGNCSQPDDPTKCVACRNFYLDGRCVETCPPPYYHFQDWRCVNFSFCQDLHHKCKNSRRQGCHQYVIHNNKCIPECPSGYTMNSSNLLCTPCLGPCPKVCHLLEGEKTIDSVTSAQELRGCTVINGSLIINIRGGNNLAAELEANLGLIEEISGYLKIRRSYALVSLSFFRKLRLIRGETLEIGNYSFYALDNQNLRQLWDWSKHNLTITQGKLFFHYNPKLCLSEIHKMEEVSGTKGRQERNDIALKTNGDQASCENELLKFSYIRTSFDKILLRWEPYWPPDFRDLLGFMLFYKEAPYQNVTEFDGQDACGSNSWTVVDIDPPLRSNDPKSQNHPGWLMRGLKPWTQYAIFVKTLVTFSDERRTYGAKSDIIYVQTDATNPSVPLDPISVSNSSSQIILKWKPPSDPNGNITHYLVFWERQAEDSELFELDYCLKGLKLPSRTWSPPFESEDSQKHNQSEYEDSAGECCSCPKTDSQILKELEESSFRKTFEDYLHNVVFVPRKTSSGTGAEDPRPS
Sequence of Insulin receptor (P06213 763-1382 limits assumed): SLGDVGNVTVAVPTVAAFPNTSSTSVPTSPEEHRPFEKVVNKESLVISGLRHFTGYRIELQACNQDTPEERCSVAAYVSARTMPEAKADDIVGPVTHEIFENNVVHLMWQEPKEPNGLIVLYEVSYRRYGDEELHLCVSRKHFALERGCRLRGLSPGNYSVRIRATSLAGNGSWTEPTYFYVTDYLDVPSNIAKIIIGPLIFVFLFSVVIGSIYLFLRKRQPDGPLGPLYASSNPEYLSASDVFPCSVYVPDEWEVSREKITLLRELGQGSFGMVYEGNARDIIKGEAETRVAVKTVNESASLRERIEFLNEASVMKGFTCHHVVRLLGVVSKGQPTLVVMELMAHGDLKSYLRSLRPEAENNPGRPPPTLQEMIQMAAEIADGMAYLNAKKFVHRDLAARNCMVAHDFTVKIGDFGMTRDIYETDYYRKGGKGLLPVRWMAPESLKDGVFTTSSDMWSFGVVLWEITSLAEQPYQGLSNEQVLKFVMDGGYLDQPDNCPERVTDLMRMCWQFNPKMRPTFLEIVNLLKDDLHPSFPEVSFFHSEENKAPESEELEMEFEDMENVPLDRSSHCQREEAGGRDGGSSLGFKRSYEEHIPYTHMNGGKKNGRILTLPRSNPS

IC50 [1]: 40 nM | IC50 [2]: 11 nM | IC50 [3]: 464 nM | IC50 [4]: 624 nM | IC50 [5]: 32 nM
SMILES: CCCCN(CC#CC(=O)Nc1ccc2ncnc(Nc3ccc(F)c(Cl)c3)c2c1)CCCC

IC50 [1]: 3.1 nM | IC50 [2]: 14 nM | IC50 [3]: 26 nM | IC50 [4]: 6.2 nM | IC50 [5]: 22 nM
SMILES: O=C(C#CCN1CCOCC1)Nc1cc2c(Nc3ccc(F)c(Cl)c3)ncnc2cn1

IC50 [3]: 2.8 nM | IC50 [5]: 65 nM
SMILES: CC(C)N(CC#CC(=O)Nc1ccc2ncnc(Nc3ccc(F)c(Cl)c3)c2c1)C(C)C

Vd [6]: 3.1 L/kg | Vd [7]: 0.93 L/kg | Vd [8]: 1.7 L/kg | AUC [9]: 703 ng·h/mL | AUC [10]: 7470 ng·h/mL | AUC [14]: 1190 ng·h/mL | AUC [15]: 240 ng·h/mL | AUC [16]: 15200 ng·h/mL | AUC [17]: 485 ng·h/mL | bioavailability [18]: 11.4% | bioavailability [19]: 67.8% | bioavailability [20]: 6.75% | Cmax [21]: 56.3 ng/mL | Cmax [22]: 4180 ng/mL | Cmax [23]: 83.5 ng/mL | Tmax [24]: 4.7 h | Tmax [25]: 1 h | Tmax [26]: 3.5 h | half-life [27]: 0.83 h | half-life [28]: 1.86 h | half-life [29]: 0.37 h | clearance [30]: 119 mL/min/kg | clearance [31]: 11.5 mL/min/kg | clearance [32]: 85.8 mL/min/kg | IC50 [33]: > 50000 nM | IC50 [34]: > 50000 nM | IC50 [35]: > 50000 nM | IC50 [3]: 0.7 nM | IC50 [4]: 1.2 nM | IC50 [5]: 1 nM | IC50 [38]: 0.8 nM
SMILES: CN1CCN(CCC#CC(=O)Nc2cc3c(Nc4ccc(F)c(Cl)c4)ncnc3cn2)CC1
Activity [11]: Active | Activity [12]: Active | Activity [13]: Active | Activity [36]: Active | Activity [37]: Active

IC50 [1]: 1.5 nM | IC50 [2]: 4.5 nM | IC50 [3]: 0.7 nM | IC50 [4]: 1 nM | IC50 [5]: 0.5 nM
SMILES: O=C(C#CCCN1CCOCC1)Nc1cc2c(Nc3ccc(F)c(Br)c3)ncnc2cn1

IC50 [1]: 1.7 nM | IC50 [2]: 12 nM | IC50 [3]: 2.3 nM | IC50 [4]: 4.3 nM | IC50 [5]: 7.6 nM
SMILES: O=C(C#CCCN1CCOCC1)Nc1ccc2ncnc(Nc3ccc(F)c(Cl)c3)c2c1

IC50 [1]: 0.9 nM | IC50 [2]: 4.3 nM | IC50 [3]: 2.1 nM | IC50 [4]: 1.8 nM | IC50 [5]: 2 nM
SMILES: O=C(C#CCCN1CCCCC1)Nc1cc2c(Nc3ccc(F)c(Cl)c3)ncnc2cn1

IC50 [1]: 1.3 nM | IC50 [2]: 1.8 nM | IC50 [3]: 0.8 nM | IC50 [4]: 1 nM | IC50 [5]: 5 nM
SMILES: O=C(C#CCCN1CCOCC1)Nc1cc2c(Nc3ccc(F)c(Cl)c3)ncnc2cn1

IC50 [1]: 86 nM | IC50 [2]: 31 nM | IC50 [3]: 300 nM | IC50 [4]: 229 nM | IC50 [5]: 173 nM
SMILES: O=C(C#CCN1CCOCC1)Nc1ccc2ncnc(Nc3ccc(F)c(Cl)c3)c2c1

IC50 [1]: 1.8 nM | IC50 [2]: 4.5 nM | IC50 [3]: 2.6 nM | IC50 [4]: 16 nM | IC50 [5]: 23 nM
SMILES: CCN(CC)CCC#CC(=O)Nc1ccc2ncnc(Nc3ccc(F)c(Cl)c3)c2c1

IC50 [1]: 1.4 nM | IC50 [2]: 25 nM | IC50 [3]: 2.1 nM | IC50 [4]: 7.3 nM | IC50 [5]: 43 nM
SMILES: O=C(C#CCO)Nc1ccc2ncnc(Nc3ccc(F)c(Cl)c3)c2c1

IC50 [1]: 3.1 nM | IC50 [2]: 6.8 nM | IC50 [3]: 46 nM | IC50 [4]: 310 nM | IC50 [5]: 7.5 nM
SMILES: CCN(CC)CC#CC(=O)Nc1ccc2ncnc(Nc3ccc(F)c(Cl)c3)c2c1

The remaining lines, values behind:

SMILES: CCCC#CC(=O)Nc1cc2c(Nc3ccc(F)c(Cl)c3)ncnc2cn1
IC50 [1]: 1.7 nM | IC50 [2]: 9.6 nM | IC50 [3]: 3.8 nM | IC50 [4]: 2.4 nM | IC50 [5]: 170 nM

SMILES: CCCCC#CC(=O)Nc1cc2c(Nc3ccc(F)c(Cl)c3)ncnc2cn1
IC50 [1]: 15 nM | IC50 [2]: 4.5 nM | IC50 [3]: 5.4 nM | IC50 [4]: 7.1 nM | IC50 [5]: 20 nM

SMILES: C#CC(=O)Nc1ccc2ncnc(Nc3cccc(Br)c3)c2c1
IC50 [3]: 1.9 nM | IC50 [4]: 1.7 nM

SMILES: CC(C)N(CC#CC(=O)Nc1cc2c(Nc3ccc(F)c(Cl)c3)ncnc2cn1)C(C)C
IC50 [1]: 44 nM | IC50 [2]: 73 nM | IC50 [3]: > 1000 nM | IC50 [4]: 538 nM | IC50 [5]: 36 nM

SMILES: CCCCN(CC#CC(=O)Nc1cc2c(Nc3ccc(F)c(Cl)c3)ncnc2cn1)CCCC
IC50 [1]: 17 nM | IC50 [2]: 49 nM | IC50 [3]: 67 nM | IC50 [4]: 73 nM | IC50 [5]: 320 nM

SMILES: CC#CC(=O)Nc1ccc2ncnc(Nc3cccc(Br)c3)c2c1
IC50 [3]: 17 nM | IC50 [4]: 12 nM

SMILES: CC#CC(=O)Nc1cc2c(Nc3ccc(F)c(Cl)c3)ncnc2cn1
IC50 [3]: 1.1 nM | IC50 [4]: 0.5 nM | IC50 [5]: 24 nM

SMILES: CN1CCN(CCC#CC(=O)Nc2cc3c(Nc4ccc(F)c(Br)c4)ncnc3cn2)CC1
IC50 [1]: 1.1 nM | IC50 [2]: 2.7 nM | IC50 [3]: 0.5 nM | IC50 [4]: 0.8 nM | IC50 [5]: 3.5 nM

SMILES: C#CC(=O)Nc1cc2c(Nc3cccc(Br)c3)ncnc2cn1
IC50 [1]: 0.6 nM | IC50 [2]: 15 nM | IC50 [3]: 2.4 nM | IC50 [4]: 13 nM

SMILES: CCN(CC)CC#CC(=O)Nc1cc2c(Nc3ccc(F)c(Cl)c3)ncnc2cn1
IC50 [1]: 15 nM | IC50 [2]: 48 nM | IC50 [3]: 597 nM | IC50 [4]: 644 nM | IC50 [5]: 116 nM
